Experimental findings from patent US4921850A, “3-propenylcephem derivative” (Eisai Co., Ltd., priority 1986, dated 1990) are described below.

The term MIC denotes the lowest concentration found to suppress growth.

Common to all, as to experiment: Anti-bacterial activity (MIC), agar dilution
Common to all, as to type: cell-based
A general note: In agar dilution, organisms are placed on agar that contains the substance at set levels.

The test system of one experiment is Escher. coli NIHJ. The note with it: Escher. coli NIHJ, agar dilution, about 10^6 CFU/ml, 18 hours, 37° C. On the procedure:
(§1) MIC (μg/ml) were determined by an agar dilution method [Chemotherapy (Japan), 29, 76-79, 1981]. Overnight cultures of the bacterial strains in Mueller-Hinton broth were diluted to final concentration of about 10^6 CFU/ml, and 5 μl of each bacterial suspension was spotted onto Mueller-Hinton agar plates that contained twofold serial dilutions of antibiotics. MICs were measured after incubation for 18 hours at 37° C.

In a further experiment the test system is Kleb. pneumoniae EK-6. The note with it: Kleb. pneumoniae EK-6, agar dilution, about 10^6 CFU/ml, 18 hours, 37° C. The protocol: as §1
Experiment [1] has as its system Morganella morganii EP-14. The note with it: about 10^6 CFU/ml, 37° C. The protocol:
as §1

For the next experiment, the system named is Pseud. aeruginosa EP-01. The note with it: Pseud. aeruginosa EP-01, agar dilution, about 10^6 CFU/ml, 18 hours, 37° C. The protocol:
as §1

The test system of a further experiment is Ser. marcescens ES-75. The note with it: Ser. marcescens ES-75, agar dilution, about 10^6 CFU/ml, 18 hours, 37° C. On the procedure: as §1
The subject of a further experiment is Staph. aureus 209-P. The note with it: Staph. aureus 209-P, agar dilution, about 10^6 CFU/ml, 18 hours, 37° C. The protocol: as §1
The mark [2] stands for this setting: Escherichia coli, 18 h, read-out: MIC.
Where [3] appears, read: Pseudomonas aeruginosa, EP01, 18 h, read-out: MIC.
The mark [4] stands for this setting: Klebsiella pneumoniae, EK6, 18 h, read-out: MIC.
Where [5] appears, read: Morganella morganii, EP14, 18 h, read-out: MIC.
Setting [6] is: Serratia marcescens, ES75, 18 h, read-out: MIC.
Setting [7] is: Staphylococcus aureus, 209P, 18 h, read-out: MIC.

≈ marks a conversion by molar mass, not a printed value. Like-named read-outs stand apart in the source and are kept apart here.

With `NC(=O)C1CC[N+](C/C=C/C2=C(C(=O)[O-])N3C(=O)[C@@H](NC(=O)/C(=N\OCF)c4nsc(N)n4)[C@H]3SC2)(CCO)CC1` (single isomer, unassigned) [Example 2-2, 7β-[2-(5-Amino-1,2,4-thiadiazol-3-yl)-(Z)-2-fluoromethoxyiminoacetamido]-3-[(E)-3-[1-(2-hydroxyethyl)-4-carbamoyl-1-piperidinio]-1-propen-1-yl]-3-cephem-4-carboxylate], the MIC was at most 0.025 µg/mL in the experiment with Escher. coli NIHJ (setting [2]); at most 0.025 µg/mL against Kleb. pneumoniae EK-6; at most 0.025 µg/mL in experiment [1] (18 hours); 1.56 µg/mL (≈ 2.55 µM) with Pseud. aeruginosa EP-01 (setting [3]); at most 0.025 µg/mL against Ser. marcescens ES-75; 0.4 µg/mL (≈ 0.653 µM) against Staph. aureus 209-P.
Consider `C[N+]1(C/C=C/C2=C(C(=O)[O-])N3C(=O)[C@@H](NC(=O)/C(=N\OCF)c4nsc(N)n4)[C@H]3SC2)C[C@H](O)C[C@@H]1CO` (single isomer, unassigned) [Example 6-2, 7β-[2-(5-Amino-1,2,4-thiadiazol-3-yl)-(Z)-2-fluoromethoxyiminoacetamido]-3-[(E)-3-(4R-hydroxy-2R-hydroxymethyl-1-methyl-1-pyrrolidinio)-1-propen-1-yl]-3-cephem-4-carboxylate], for which the MIC against Escher. coli NIHJ was at most 0.025 µg/mL; in the experiment with Kleb. pneumoniae EK-6, at most 0.025 µg/mL; in experiment [1] (18 hours), at most 0.025 µg/mL; in the experiment on Pseud. aeruginosa EP-01, 0.8 µg/mL (≈ 1.4 µM); against Ser. marcescens ES-75, at most 0.025 µg/mL; against Staph. aureus 209-P it was 0.1 µg/mL (≈ 0.175 µM).
`Nc1nc(/C(=N/OCF)C(=O)N[C@@H]2C(=O)N3C(C(=O)[O-])=C(/C=C/C[N+]4(CCO)C[C@H](O)C[C@H]4CO)CS[C@H]23)ns1` (single isomer, unassigned) [Example 7-1, 7β-[2-(5-Amino-1,2,4-thiadiazol-3-yl)-(Z)-2-fluoromethoxyiminoacetamido]-3-[(E)-3-[4R-hydroxy-1-(2-hydroxyethyl)-2S-hydroxymethyl-1-pyrrolidinio]-1-propen-1-yl]-3-cephem-4-carboxylate]: the MIC was at most 0.025 µg/mL with Escher. coli NIHJ (setting [2]); at most 0.025 µg/mL in the experiment with Kleb. pneumoniae EK-6 (setting [4]); at most 0.025 µg/mL in experiment [1] (setting [5]); 0.8 µg/mL (≈ 1.33 µM) in the experiment on Pseud. aeruginosa EP-01 (setting [3]); at most 0.025 µg/mL with Ser. marcescens ES-75 (setting [6]); 0.2 µg/mL (≈ 0.332 µM) with Staph. aureus 209-P (setting [7]).
`CC(C(N)=O)[N+]1(C/C=C/C2=C(C(=O)[O-])N3C(=O)[C@@H](NC(=O)/C(=N\OCF)c4nsc(N)n4)[C@H]3SC2)CCCC1` (single isomer, unassigned) [Example 13-2]: the MIC was at most 0.025 µg/mL in the experiment on Escher. coli NIHJ; at most 0.025 µg/mL against Kleb. pneumoniae EK-6; 0.05 µg/mL (≈ 0.0858 µM) in experiment [1] (18 hours); 1.56 µg/mL (≈ 2.68 µM) against Pseud. aeruginosa EP-01; 0.05 µg/mL (≈ 0.0858 µM) in the experiment with Ser. marcescens ES-75; 0.2 µg/mL (≈ 0.343 µM) in the experiment on Staph. aureus 209-P.
As to `Nc1nc(/C(=N/OCF)C(=O)N[C@@H]2C(=O)N3C(C(=O)[O-])=C(/C=C/C[N+]4(CC(O)CO)CCCC4)CS[C@H]23)ns1` (single isomer, unassigned) [Example 23-1], the MIC is at most 0.025 µg/mL in the experiment with Escher. coli NIHJ (setting [2]); at most 0.025 µg/mL in the experiment with Kleb. pneumoniae EK-6 (setting [4]); at most 0.025 µg/mL in experiment [1] (setting [5]); 1.56 µg/mL (≈ 2.66 µM) with Pseud. aeruginosa EP-01 (setting [3]); at most 0.025 µg/mL in the experiment with Ser. marcescens ES-75 (setting [6]); 0.2 µg/mL (≈ 0.342 µM) in the experiment on Staph. aureus 209-P (setting [7]).
With `Nc1nc(/C(=N/OCF)C(=O)N[C@@H]2C(=O)N3C(C(=O)[O-])=C(/C=C/C[N+]4(CC(O)CO)CCCC4)CS[C@H]23)ns1` (single isomer, unassigned) [Example 23-2], the MIC is 0.05 µg/mL (≈ 0.0854 µM) against Escher. coli NIHJ; at most 0.025 µg/mL in the experiment with Kleb. pneumoniae EK-6; 0.05 µg/mL (≈ 0.0854 µM) in experiment [1] (18 hours); 1.56 µg/mL (≈ 2.66 µM) with Pseud. aeruginosa EP-01; at most 0.025 µg/mL in the experiment on Ser. marcescens ES-75; 0.2 µg/mL (≈ 0.342 µM) against Staph. aureus 209-P.
Turning to `C[C@@H](CO)[N+](C)(C)C/C=C/C1=C(C(=O)[O-])N2C(=O)[C@@H](NC(=O)/C(=N\OCC#N)c3nsc(N)n3)[C@H]2SC1` [Example 148], the MIC with Kleb. pneumoniae EK-6 (setting [4]) was 0.05 µg/mL (≈ 0.0908 µM); in experiment [1] (setting [5]), 0.1 µg/mL (≈ 0.182 µM); in the experiment on Pseud. aeruginosa EP-01 (setting [3]), 1.56 µg/mL (≈ 2.83 µM); with Ser. marcescens ES-75 (setting [6]) it was 0.05 µg/mL (≈ 0.0908 µM); in the experiment on Staph. aureus 209-P (setting [7]), 0.4 µg/mL (≈ 0.726 µM).
